Reference: US10280159B2 (AbbVie Deutschland GmbH & Co. KG, priority 2015, dated 2019)

Assays:
Assay type in all cases: cell-based
human S1PR4 = target: T1, human S1PR4 (Homo sapiens, UniProt O95977); assay: Intracellular Ca2+ release (FLIPR) agonist potency, S1P4; conditions: recombinant CHO-K1 cells expressing human S1PR4, aequorin, Gq/i5; Calcium 5 FLIPR; read-out: S1P4 EC50
T1 construct: host or cells: CHO-K1
T1 sequence (O95977 1-384): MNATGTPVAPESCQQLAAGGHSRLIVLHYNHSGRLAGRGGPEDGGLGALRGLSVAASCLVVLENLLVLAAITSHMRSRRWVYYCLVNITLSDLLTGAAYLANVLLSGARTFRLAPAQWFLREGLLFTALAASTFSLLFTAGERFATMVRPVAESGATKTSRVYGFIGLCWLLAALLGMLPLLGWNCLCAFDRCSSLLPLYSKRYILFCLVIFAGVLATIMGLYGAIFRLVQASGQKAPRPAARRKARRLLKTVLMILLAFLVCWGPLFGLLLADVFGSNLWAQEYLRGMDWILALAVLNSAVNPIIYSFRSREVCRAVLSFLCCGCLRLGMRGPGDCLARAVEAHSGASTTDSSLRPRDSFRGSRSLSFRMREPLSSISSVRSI
Method: (§1) Agonistic activity was measured using the method described below.
(§2) Intracellular Ca^2+ Release
(§3) Agonist potency and intrinsic activity was assessed by measurement of intracellular Ca^2+ release. Recombinant CHO-K1 cells (Euroscreen, Brussels, Belgium) expressing human S1PR5, S1PR1, S1PR3 or S1PR4 receptors, aequorin, and GTP binding protein Gq/i5 were cultured using a medium containing nutrient mixture F-12 Ham (Sigma-Aldrich) with 10% FBS, and 100 μg/mL gentamicin and equilibrated at 5% CO2.
(§4) Phospho-fingolimod was used as positive control. Antagonists were pre-incubated for 10 min with cells before addition of the agonist (phospho-fingolimod at EC80). Measurements were performed using a fluorometric imaging plate reader FLIPR®tetra (Molecular Devices). Agonist at the human S1P receptors were characterized by deducing EC50 (potency) values from a nonlinear fit to the measured fluorescence raw data after normalization to the reference agonist (phospho-fingolimod) curve.

human S1PR1 = target: T2, human S1PR1 (Homo sapiens, UniProt P21453); assay: Intracellular Ca2+ release (FLIPR) agonist potency, S1P1; conditions: recombinant CHO-K1 cells expressing human S1PR1, aequorin, Gq/i5; Calcium 5 FLIPR; read-out: S1P1 EC50
T2 construct: host or cells: CHO-K1
T2 sequence (P21453 whole entry): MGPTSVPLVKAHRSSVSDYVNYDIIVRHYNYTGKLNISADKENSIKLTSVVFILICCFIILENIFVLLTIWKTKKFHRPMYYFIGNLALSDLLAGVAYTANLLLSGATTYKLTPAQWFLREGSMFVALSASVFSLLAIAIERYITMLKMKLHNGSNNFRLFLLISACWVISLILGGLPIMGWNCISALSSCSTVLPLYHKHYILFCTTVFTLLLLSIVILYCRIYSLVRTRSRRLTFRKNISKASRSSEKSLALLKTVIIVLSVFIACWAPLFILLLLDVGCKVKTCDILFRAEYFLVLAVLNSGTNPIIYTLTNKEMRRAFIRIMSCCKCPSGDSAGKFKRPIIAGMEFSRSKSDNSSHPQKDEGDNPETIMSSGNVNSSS
Method: as §1, §2, §3, §4

human S1PR5 = target: T3, human S1PR5 (Homo sapiens, UniProt Q9H228); assay: Intracellular Ca2+ release (FLIPR) agonist potency, S1P5; conditions: recombinant CHO-K1 cells expressing human S1PR5, aequorin, Gq/i5; Calcium 5 FLIPR; read-out: S1P5 EC50 range
T3 construct: host or cells: CHO-K1
T3 sequence (Q9H228 whole entry): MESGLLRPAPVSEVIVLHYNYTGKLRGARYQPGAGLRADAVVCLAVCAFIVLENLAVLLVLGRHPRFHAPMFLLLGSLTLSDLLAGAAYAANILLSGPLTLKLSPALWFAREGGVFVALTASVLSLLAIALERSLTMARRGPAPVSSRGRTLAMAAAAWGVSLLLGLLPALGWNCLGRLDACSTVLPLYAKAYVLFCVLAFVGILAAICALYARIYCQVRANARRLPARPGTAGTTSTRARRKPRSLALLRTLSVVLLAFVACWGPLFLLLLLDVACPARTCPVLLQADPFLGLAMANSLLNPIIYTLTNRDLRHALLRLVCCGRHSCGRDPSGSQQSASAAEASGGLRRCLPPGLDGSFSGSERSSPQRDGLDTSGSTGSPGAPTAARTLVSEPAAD
Method: as §1, §2, §3, §4

| EC50 (human S1PR4) | EC50 (human S1PR1) | EC50 (human S1PR5) | Structure (SMILES) |
| --- | --- | --- | --- |
| > 1 µM | > 1 µM | 1 to 10 µM | O=C(O)COC1CCc2cc(OCc3cc(Cl)ccc3Cl)ccc2C1 (stereo not drawn) [Compound 164, 2-[6-[(2,5-dichlorophenyl)methoxy]tetralin-2-yl]oxyacetic acid] |
| > 1 µM | > 1 µM | 1 to 10 µM | O=C(O)C1CN(C2COc3cc(OCc4ccc(Cl)cc4)ccc3C2)C1 (stereo not drawn) [Compound 46, 1-(7-((4-chlorobenzyl)oxy)chroman-3-yl)azetidine-3-carboxylic acid] |
| > 1 µM | > 1 µM | 0.1 to 1 µM | O=C(O)C1CN(C2COc3cc(OCc4c(F)cccc4Cl)ccc3C2)C1 (stereo not drawn) [Compound 61, 1-(7-((2-chloro-6-fluorobenzyl)oxy)chroman-3-yl)azetidine-3-carboxylic acid] |
| > 1 µM | > 1 µM | 1 to 10 µM | COc1ccc(F)c(COc2ccc3c(c2)OCC(N2CC(C(=O)O)C2)C3)c1 (stereo not drawn) [Compound 98, 1-[7-[(2-fluoro-5-methoxy-phenyl)methoxy]chroman-3-yl]azetidine-3-carboxylic acid] |
| > 1 µM | > 1 µM | < 0.01 µM | CCc1cccc(F)c1COc1ccc2c(c1)OCC(NC1(CC(=O)O)CC1)C2 (stereo not drawn) [Compound 129, 2-(1-((7-((2-ethyl-6-fluorobenzyl)oxy)chroman-3-yl)amino)cyclopropyl) acetic acid] |
| > 1 µM | > 1 µM | 1 to 10 µM | CSc1ccc(COc2ccc3c(c2)CCC(OCCC(=O)O)C3)cc1 (stereo not drawn) [Compound 182, 3-[6-[(4-methylsulfanylphenyl)methoxy]tetralin-2-yl]oxypropanoic acid] |
| > 1 µM | > 1 µM | 0.1 to 1 µM | O=C(O)C1CN(C2COc3cc(OCc4c(Cl)cccc4Cl)ccc3C2)C1 (single isomer, unassigned) [Compound 145, 1-(7-((2,6-dichlorobenzyl)oxy)chroman-3-yl)azetidine-3-carboxylic acid] |
| > 1 µM | > 1 µM | < 0.01 µM | O=C(O)CNC1COc2cc(OCc3ccc(OCc4cccc(Cl)c4)cc3)ccc2C1 (stereo not drawn) [Compound 132, (7-((4-((3-chlorobenzyl)oxy)benzyl)oxy)chroman-3-yl)glycine] |
| > 1 µM | > 1 µM | 0.1 to 1 µM | Cc1cccc(F)c1COc1ccc2c(c1)OCC(N1CC(C(=O)O)C1)C2 (stereo not drawn) [Compound 53, 1-(7-((2-fluoro-6-methylbenzyl)oxy)chroman-3-yl)azetidine-3-carboxylic acid] |
| > 1 µM | > 1 µM | 1 to 10 µM | Cc1ccccc1COc1ccc2c(c1)CCC(OCCC(=O)O)C2 (stereo not drawn) [Compound 179, 3-[6-(o-tolylmethoxy)tetralin-2-yl]oxypropanoic acid] |
| < 1 µM | > 1 µM | < 0.01 µM | CCc1cccc(Cl)c1COc1ccc2c(c1)OCC(NC1(CC(=O)O)CCC1)C2 (stereo not drawn) [Compound 116, 2-(1-((7-((2-chloro-6-ethylbenzyl)oxy)chroman-3-yl)amino)cyclobutyl)acetic acid] |
| < 1 µM | > 1 µM | 0.1 to 1 µM | CCc1cccc(Cl)c1COc1ccc2c(c1)OCC(NC13CC(C(=O)O)(C1)C3)C2 (stereo not drawn) [Compound 121, 3-((7-((2-chloro-6-ethylbenzyl)oxy)chroman-3-yl)amino)bicyclo[1.1.1]pentane-1-carboxylic acid] |

Continued, compound first:

| Structure (SMILES) | EC50 (human S1PR4) | EC50 (human S1PR1) | EC50 (human S1PR5) |
| --- | --- | --- | --- |
| COc1cc(F)cc(COc2ccc3c(c2)OCC(N2CC(C(=O)O)C2)C3)c1 (stereo not drawn) [Compound 100, 1-[7-[(3-fluoro-5-methoxy-phenyl)methoxy]chroman-3-yl]azetidine-3-carboxylic acid] | > 1 µM | > 1 µM | 1 to 10 µM |
| O=C(O)COC1CCc2cc(OCc3cc(F)ccc3Cl)ccc2C1 (stereo not drawn) [Compound 171, 2-[6-[(2-chloro-5-fluoro-phenyl)methoxy]tetralin-2-yl]oxyacetic acid] | > 1 µM | > 1 µM | 1 to 10 µM |
| O=C(O)C1CN(C2COc3cc(OCCCCOc4cccc(F)c4)ccc3C2)C1 (stereo not drawn) [Compound 102, 1-[7-[4-(3-fluorophenoxy)butoxy]chroman-3-yl]azetidine-3-carboxylic acid] | > 1 µM | > 1 µM | 1 to 10 µM |
| O=C(O)CCOC1CCc2cc(OCc3cccc(F)c3)ccc2C1 (stereo not drawn) [Compound 180, 3-[6-[(3-fluorophenyl)methoxy]tetralin-2-yl]oxypropanoic acid] | > 1 µM | > 1 µM | 1 to 10 µM |
| O=C(O)C12CC1CCN2C1CCc2cc(OCc3c(Cl)cccc3Cl)ccc2C1 (stereo not drawn) [Compound 36, 2-(6-((2,6-dichlorobenzyl)oxy)-1,2,3,4-tetrahydronaphthalen-2-yl)-2-azabicyclo[3.1.0]hexane-1-carboxylic acid] | > 1 µM | > 1 µM | 0.1 to 1 µM |
| O=C(O)C1CN(C2COc3cc(OCc4ccc5cc(F)ccc5n4)ccc3C2)C1 (stereo not drawn) [Compound 108, 1-[7-[(6-fluoro-2-quinolyl)methoxy]chroman-3-yl]azetidine-3-carboxylic acid] | > 1 µM | > 1 µM | 1 to 10 µM |
| CCc1cccc(Cl)c1COc1ccc2c(c1)CCC(NCC1(C(=O)O)CC1)C2 (stereo not drawn) [Compound 76, 1-(((6-((2-chloro-6-ethylbenzyl)oxy)-1,2,3,4-tetrahydronaphthalen-2-yl)amino)methyl)cyclopropanecarboxylic acid] | < 1 µM | < 1 µM | < 0.01 µM |
| COc1cc(COc2ccc3c(c2)OCC(N2CC(C(=O)O)C2)C3)ccc1F (stereo not drawn) [Compound 92, 1-[7-[(4-fluoro-3-methoxy-phenyl)methoxy]chroman-3-yl]azetidine-3-carboxylic acid] | > 1 µM | > 1 µM | 1 to 10 µM |
| O=C(O)C1CN(C2COc3cc(OCCc4ccc(Cl)cc4)ccc3C2)C1 (stereo not drawn) [Compound 228, 1-[7-[2-(4-chlorophenyl)ethoxy]chroman-3-yl]azetidine-3-carboxylic acid] | > 1 µM | > 1 µM | 1 to 10 µM |
| O=C(O)CCOC1CCc2cc(OCc3ccccc3OC(F)(F)F)ccc2C1 (stereo not drawn) [Compound 190, 3-[6-[[2-(trifluoromethoxy)phenyl]methoxy]tetralin-2-yl]oxypropanoic acid] | > 1 µM | > 1 µM | 1 to 10 µM |
| CCc1cccc(Cl)c1COc1ccc2c(c1)CCC(OCC(=O)O)C2 (single isomer, unassigned) [Compound 239] | > 1 µM | > 1 µM | 0.1 to 1 µM |
| COc1ccc(COc2ccc3c(c2)OCC(N2CC(C(=O)O)C2)C3)cc1F (stereo not drawn) [Compound 95, 1-[7-[(3-fluoro-4-methoxy-phenyl)methoxy]chroman-3-yl]azetidine-3-carboxylic acid] | > 1 µM | > 1 µM | 1 to 10 µM |
| O=C(O)C1CN(C2COc3cc(OCCCc4cccc(F)c4)ccc3C2)C1 (stereo not drawn) [Compound 99, 1-[7-[3-(3-fluorophenyl)propoxy]chroman-3-yl]azetidine-3-carboxylic acid] | > 1 µM | > 1 µM | 1 to 10 µM |
| CCc1cccc(F)c1COc1ccc2c(c1)OCC(NC1(CC(=O)O)CCC1)C2 (stereo not drawn) [Compound 118, 2-(1-((7-((2-ethyl-6-fluorobenzyl)oxy)chroman-3-yl)amino)cyclobutyl)acetic acid] | < 1 µM | > 1 µM | < 0.01 µM |
| O=C(O)COC1CCc2cc(OCc3ccc(Cl)cc3)ccc2C1 (stereo not drawn) [Compound 209, 2-[6-[(4-chlorophenyl)methoxy]tetralin-2-yl]oxyacetic acid] | > 1 µM | > 1 µM | 1 to 10 µM |
| CC(C)(C)c1ccc(COc2ccc3c(c2)CCC(OCCC(=O)O)C3)cc1 (stereo not drawn) [Compound 192, 3-[6-[(4-tert-butylphenyl)methoxy]tetralin-2-yl]oxypropanoic acid] | > 1 µM | > 1 µM | 1 to 10 µM |
| COc1ccccc1COc1ccc2c(c1)CCC(OCC(=O)O)C2 (stereo not drawn) [Compound 170, 2-[6-[(2-methoxyphenyl)methoxy]tetralin-2-yl]oxyacetic acid] | > 1 µM | > 1 µM | 1 to 10 µM |
| O=C(O)CCOC1CCc2cc(OCc3cccc(F)c3F)ccc2C1 (stereo not drawn) [Compound 186, 3-[6-[(2,3-difluorophenyl)methoxy]tetralin-2-yl]oxypropanoic acid] | > 1 µM | > 1 µM | 1 to 10 µM |
| O=C(O)COC1CCc2cc(OCc3ccccc3Cl)ccc2C1 (stereo not drawn) [Compound 206, 2-[6-[(2-chlorophenyl)methoxy]tetralin-2-yl]oxyacetic acid] | > 1 µM | > 1 µM | 1 to 10 µM |
